Like-named read-outs stand apart in the source and are kept apart here. Starred links: 1 amine or outer side, 2 acyl side, 3 side chain; linkers in the order of their positions; H or OH if unused. Non-standard residues stand in square brackets, D forms with d. Residues, ends and D or L forms follow the SMILES beside them. Groups on a side chain read outwards from the residue. *: point of attachment. C20 diacid = O=C(O)CCCCCCCCCCCCCCCCCCC(=O)*; γGlu = O=C(O)[C@H](CCC(=O)[*:2])N[*:1]; Nle = CCCC[C@H](N)C(=O)O; AEEA = NCCOCCOCC(=O)O; Aib = CC(C)(N)C(=O)O
Key:
[1] = Chemical stability of purified peptides (RP-UHPLC main peak purity loss); assay type: physicochemical
How it was run: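 Peptides at about 1.0 mg/ml in 50 mM phosphate buffer pH 7.5, or pH-adjusted for the pH series, were incubated at 40 °C for 14 and 28 days. Main-peak purity was taken as main-peak area over total area by RP-UHPLC (UV 215 nm, C8, 50 °C). Purity loss was calculated versus T0.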

[2] = PK in rats; assay type: in vivo; design: T½ / MRT: unit not given here; settings: Rat
Procedure: Lean male Sprague Dawley rats (RJHan:SD) were obtained from JanVier (JanVier Labs, France) at 7 weeks of age. The animals were pair housed until randomization under a 12/12 h dark-light cycle, light off at 3 PM. Room temperature was controlled to 22°C ± 1°C, with 60 % ± 20% humidity.
Animals had ad libitum access to regular rodent chow (Altromin 1324, Brogaarden, Denmark) and tap water.
After 2 weeks of acclimatization, the animals were single housed and randomized into treatment groups (n = 3 per group) based on body weight on study day -3. On study day 1, animals were dosed 50 nmol/kg IV and SC in combination of two peptides. Plasma samples were collected for PK analysis at times 0.17, 1, 3, 6, 24, 30, 48, 72 and 96 hours post dosing. Plasma samples were analyzed using LC-MSMS and PK parameters were estimated by Non-Compartmental Analysis (NCA).

[3] = pH 7.5
Procedure: Solubility was tested in the following vehicles: 100 mM phosphate buffer facilitating a target pH of 6.5, 7.0, and 7.5. Samples were directly dissolved in Mini-UniPrep Syringeless Filter 0.45 µm unit (Whatman). For the desired concentration, such as a concentration of 4000 µM (approximately 20 mg/mL), 1600 nmol peptide was dissolved in 400 µL vehicle. Samples were incubated for at least 1 h at room temperature on a rocking table. The pH was measured and adjusted. Samples were left on the rocking table for an additional hour before a second pH measurement and adjustment. Visual inspection was performed and noted before the filter was pushed. The concentration of peptide in the filtrate was determined using CAD (Charged Aerosol Detection), double determination was done for each sample. The measured concentration was reported in µM. Furthermore, the pH of the filtrate was measured and reported. Peptides with a measured concentration within +/-20% of target concentration are considered fully soluble.
Compounds were dissolved to a nominal concentration of 4000 µM and analysed as described above. Samples with phenol contained 5.0 mg/ml phenol.

[4] = molecular target: T1, hCRHR2 (Homo sapiens, UniProt Q13324); assay: HTRF cAMP assay, determination of hCRHR2 potency (peptide libraries 5 conc., purified peptides 11 conc.); assay type: cell-based
T1 sequence (Q13324 1-411): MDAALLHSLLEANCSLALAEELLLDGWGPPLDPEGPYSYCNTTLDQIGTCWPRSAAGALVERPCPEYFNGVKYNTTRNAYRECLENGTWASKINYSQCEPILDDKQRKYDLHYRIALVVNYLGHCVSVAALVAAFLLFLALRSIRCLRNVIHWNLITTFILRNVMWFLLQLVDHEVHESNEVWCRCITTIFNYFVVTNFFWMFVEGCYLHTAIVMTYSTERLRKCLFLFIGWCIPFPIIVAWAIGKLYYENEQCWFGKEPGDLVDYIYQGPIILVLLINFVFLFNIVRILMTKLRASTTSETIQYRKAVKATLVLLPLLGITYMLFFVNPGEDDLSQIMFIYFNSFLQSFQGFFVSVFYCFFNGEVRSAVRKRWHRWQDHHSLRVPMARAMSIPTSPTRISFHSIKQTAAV
How it was run: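 Potency was read as cAMP accumulation in a stable CHO-K1 line expressing human CRHR2, used in suspension right after thawing. Detection relied on energy transfer from antibody-bound cryptate to d2-cAMP.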

[5] = Thioflavin T fibril formation assay of purified peptides; assay type: physicochemical; design: key: Amyloid fibril formation detected by an increase in ThT fluorescence was denoted with "Yes"; samples without increasing ThT fluorescence hence not forming amyloid fibrils were denoted "No"
How it was run: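 Compounds at 200 µM in 50 mM phosphate buffer at the stated pH values, or at 200 µM in semaglutide drug product adjusted to pH 7.4, with 4 µM ThT final. Fibrillation followed as ThT fluorescence (ex 450/em 480 nm) over 96 h at 40°C, with 5 min shaking at 700 rpm alternating with 5 min rest; triplicates.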

[6] = molecular target: T2, hCRHR1 (Homo sapiens, UniProt P34998); assay: HTRF cAMP assay, determination of hCRHR1 potency (peptide libraries 5 conc., purified peptides 11 conc.); assay type: cell-based
T2 sequence (P34998 24-415): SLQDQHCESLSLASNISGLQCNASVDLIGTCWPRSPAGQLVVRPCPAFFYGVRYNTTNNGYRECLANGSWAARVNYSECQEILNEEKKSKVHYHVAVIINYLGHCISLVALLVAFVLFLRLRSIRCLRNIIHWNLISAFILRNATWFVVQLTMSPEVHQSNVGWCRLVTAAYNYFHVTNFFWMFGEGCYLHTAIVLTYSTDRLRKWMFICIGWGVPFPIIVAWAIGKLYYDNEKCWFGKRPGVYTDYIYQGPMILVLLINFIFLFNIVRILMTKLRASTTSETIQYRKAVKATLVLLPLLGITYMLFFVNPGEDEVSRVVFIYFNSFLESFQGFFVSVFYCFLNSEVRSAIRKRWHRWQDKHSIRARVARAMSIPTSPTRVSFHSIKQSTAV
How it was run: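 CHO-K1 cells stably expressing human CRHR1, thawed from frozen stocks just before use, were stimulated in suspension with agonist peptides. cAMP was measured by HTRF competitive immunoassay (cryptate anti-cAMP antibody vs d2-cAMP).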

[7] = Table 5, purified peptides, read-out: hCRHR2 EC50
[8] = Table 5, purified peptides, read-out: hCRHR1 EC50

SMILES | Chemical stability at pH 7.5 after 14 days at 40°C (% degradation) ([1]; pH 7.5, 40°C, 14 days, first value of cell) | Chemical stability at pH 7.5 after 28 days at 40°C (% degradation) ([1]; pH 7.5, 40°C, 28 days, second value of cell) | MRT [2] | T½ [2] | Solubility pH 7.5, target conc. =10 mg/mL (measured mg/mL) [3] | Selectivity ratio (hCRHR1/ hCRHR2) ([4]; hCRHR1-EC50/hCRHR2-EC50) | EC50 ([4]; purified peptides, CHO-K1 cells stably expressing hCRHR2, cAMP HTRF, read-out: hCRHR2 EC50) | Fibrillation (pH 7.5) ([5]; pH 7.5, ThT assay) | EC50 ([6]; purified peptides, CHO-K1 cells stably expressing hCRHR1, cAMP HTRF, read-out: hCRHR1 EC50) | Chemical stability at pH 7.5 after 14 days at 40°C (% degradation) ([1]; pH 7.5, 14 days, 40°C) | Chemical stability at pH 7.5 after 28 days at 40°C (% degradation) ([1]; pH 7.5, 28 days, 40°C) | Selectivity ratio (hCRHR1/ hCRHR2) ([4]; Table 5) | EC50 [4, 7] | Fibrillation (pH 7.5) ([5]; pH 7.5) | EC50 [6, 8] | EC50 ([4]; library peptides, matched molecular pairs L vs Nle in position X^38, read-out: Potency hCRHR2 pEC50 (converted)) | EC50 ([6]; library peptides, matched molecular pairs L vs Nle in position X^38, read-out: Potency hCRHR1 pEC50 (converted))
CC[C@H](C)[C@H](N)C(=O)N[C@H](C(=O)N[C@@H](CC(C)C)C(=O)N[C@@H](CO)C(=O)N[C@@H](CC(C)C)C(=O)N[C@@H](CC(=O)O)C(=O)N[C@H](C(=O)N1CCC[C@H]1C(=O)N[C@H](C(=O)NCC(=O)N[C@@H](CC(C)C)C(=O)N[C@@H](CC(C)C)C(=O)N[C@@H](CCC(N)=O)C(=O)N[C@H](C(=O)N[C@@H](CC(C)C)C(=O)N[C@@H](CC(C)C)C(=O)N[C@@H](CCC(=O)O)C(=O)N[C@@H](CCC(N)=O)C(=O)N[C@@H](C)C(=O)N[C@@H](CCCNC(=N)N)C(=O)N[C@@H](C)C(=O)N[C@@H](CCCNC(=N)N)C(=O)N[C@@H](C)C(=O)N[C@@H](C)C(=O)N[C@@H](CCCNC(=N)N)C(=O)N[C@@H](CCC(=O)O)C(=O)N[C@@H](CCC(N)=O)C(=O)N[C@@H](C)C(=O)N[C@@H](CCCCNC(=O)COCCOCCNC(=O)COCCOCCNC(=O)CC[C@H](NC(=O)CC[C@H](NC(=O)CCCCCCCCCCCCCCCCCCC(=O)O)C(=O)O)C(=O)O)C(=O)N[C@H](C(=O)N[C@@H](CC(N)=O)C(=O)NC(C)(C)C(=O)N[C@@H](CCC(=O)O)C(=O)N[C@H](C(=O)N[C@@H](CC(C)C)C(=O)N[C@@H](C)C(=O)N[C@@H](CCC(=O)O)C(=O)N[C@H](C(N)=O)C(C)C)[C@@H](C)CC)[C@@H](C)O)[C@@H](C)CC)[C@@H](C)CC)C(C)C)C(C)C [SEQ ID NO: 15] (H-IVLSLDVPIGLLQILLEQARARAAREQAK([AEEA-AEEA-γGlu-γGlu-C20 diacid])TN[Aib]EILAEV-NH2) | -1.0% | -1.2% | 8 | 7.7 | 9.8 mg/mL | >2174 | 2.3 nM | No | > 5000 nM |  |  |  |  |  |  |  | 
CCCC[C@H](NC(=O)[C@@H](NC(=O)[C@H](CCC(=O)O)NC(=O)C(C)(C)NC(=O)[C@H](CC(N)=O)NC(=O)[C@@H](NC(=O)[C@H](CCCCNC(=O)COCCOCCNC(=O)COCCOCCNC(=O)CC[C@H](NC(=O)CC[C@H](NC(=O)CCCCCCCCCCCCCCCCCCC(=O)O)C(=O)O)C(=O)O)NC(=O)[C@H](C)NC(=O)[C@H](CCC(N)=O)NC(=O)[C@H](CCC(=O)O)NC(=O)[C@H](CCCNC(=N)N)NC(=O)[C@H](C)NC(=O)[C@H](C)NC(=O)[C@H](CCCNC(=N)N)NC(=O)[C@H](C)NC(=O)[C@H](CCCNC(=N)N)NC(=O)[C@H](C)NC(=O)[C@H](CCC(N)=O)NC(=O)[C@H](CO)NC(=O)[C@H](CC(C)C)NC(=O)[C@H](CC(C)C)NC(=O)[C@@H](NC(=O)[C@H](CCC(N)=O)NC(=O)[C@H](CC(C)C)NC(=O)[C@H](CC(C)C)NC(=O)CNC(=O)[C@@H](NC(=O)[C@@H]1CCCN1C(=O)[C@@H](NC(=O)[C@H](CC(=O)O)NC(=O)[C@H](CC(C)C)NC(=O)[C@H](CO)NC(=O)[C@H](CC(C)C)NC(=O)[C@@H](NC(=O)[C@@H](N)[C@@H](C)CC)C(C)C)C(C)C)[C@@H](C)CC)[C@@H](C)CC)[C@@H](C)O)[C@@H](C)CC)C(=O)N[C@@H](C)C(=O)N[C@@H](CCC(=O)O)C(=O)N[C@H](C(N)=O)C(C)C [compound 234] (H-IVLSLDVPIGLLQILLSQARARAAREQAK([AEEA-AEEA-γGlu-γGlu-C20 diacid])TN[Aib]EI[Nle]AEV-NH2) |  |  | 5.1 | 4.1 | 11 mg/mL |  |  |  |  | -0.43% | -1.1% | >6250 | 0.8 nM | No | > 5000 nM |  | 
CCCC[C@H](NC(=O)[C@@H](NC(=O)[C@H](CCC(=O)O)NC(=O)[C@H](C)NC(=O)[C@H](CC(N)=O)NC(=O)[C@@H](NC(=O)[C@H](CCCCNC(=O)COCCOCCNC(=O)COCCOCCNC(=O)CC[C@H](NC(=O)CC[C@H](NC(=O)CCCCCCCCCCCCCCCCCCC(=O)O)C(=O)O)C(=O)O)NC(=O)[C@H](C)NC(=O)[C@H](CCC(N)=O)NC(=O)[C@H](CCC(=O)O)NC(=O)[C@H](CCCNC(=N)N)NC(=O)[C@H](C)NC(=O)[C@H](C)NC(=O)[C@H](CCCNC(=N)N)NC(=O)[C@H](C)NC(=O)[C@H](CCCNC(=N)N)NC(=O)[C@H](C)NC(=O)[C@H](CCC(N)=O)NC(=O)[C@H](CO)NC(=O)[C@H](CC(C)C)NC(=O)[C@H](CC(C)C)NC(=O)[C@@H](NC(=O)[C@H](CCC(N)=O)NC(=O)[C@H](CC(C)C)NC(=O)[C@H](CC(C)C)NC(=O)CNC(=O)[C@@H](NC(=O)[C@@H]1CCCN1C(=O)[C@@H](NC(=O)[C@H](CC(=O)O)NC(=O)[C@H](CC(C)C)NC(=O)[C@H](CO)NC(=O)[C@H](CC(C)C)NC(=O)[C@@H](NC(=O)[C@@H](N)[C@@H](C)CC)C(C)C)C(C)C)[C@@H](C)CC)[C@@H](C)CC)[C@@H](C)O)[C@@H](C)CC)C(=O)N[C@@H](C)C(=O)N[C@@H](CCC(=O)O)C(=O)N[C@H](C(N)=O)C(C)C [compound 83] (H-IVLSLDVPIGLLQILLSQARARAAREQAK([AEEA-AEEA-γGlu-γGlu-C20 diacid])TNAEI[Nle]AEV-NH2) |  |  |  |  | 9.5 mg/mL |  |  |  |  | -3.2% | -10% | >9091 | 0.55 nM | No | > 5000 nM | 0.316 nM | 7940 nM

— EP4810052A2, “HCRHR2 SELECTIVE POLYPEPTIDES” (Gubra A/S, priority 2023, dated 2026)
